{"source": "paper PMC2667962", "about": "(Biochemistry, 2008)", "key": {"[1]": {"experiment": "DSC of the phase transition of pure SOPC with peptide", "conditions": "cooling scans, SOPC without peptide 5 °C"}, "[2]": {"experiment": "Formation of anhydrous cholesterol crystals seen by DSC"}}, "data": [{"substance": "LWGIG", "values": [{"measurement": "transition temperature of pure SOPC", "setting": "[1]; 5 mol% peptide", "value": 4.7, "unit": "°C"}, {"measurement": "transition temperature of pure SOPC", "setting": "[1]; 10 mol% peptide", "value": 4.7, "unit": "°C"}, {"measurement": "transition temperature of pure SOPC", "setting": "[1]; 15 mol% peptide", "value": 4.5, "unit": "°C"}, {"measurement": "formation of anhydrous cholesterol crystals", "setting": "[2]; any of the SOPC/cholesterol ratios", "value": "no formation of anhydrous cholesterol crystals"}]}, {"substance": "Ac-GWGIK-NH2 [GWGIK, N-acetyl-GWGIK-amide]", "values": [{"measurement": "formation of cholesterol crystals", "setting": "[2]; 6/4 ratio of SOPC/cholesterol", "value": "no formation of cholesterol crystals"}, {"measurement": "formation of cholesterol crystals", "setting": "[2]; mixtures with 30% cholesterol", "value": "small peak corresponding to cholesterol crystals"}]}]}
